Reference: publication PMC12439480, “Dimeric CCK2R radiotheranostic tracers synergize with mTOR inhibition for enhanced tumor therapy” (Theranostics, 2025)
Numbered stars: 1 amine (or outer) side, 2 acyl side, 3 side chain; on linkers, the order of the positions; unused ones are H or OH. Square brackets hold non-standard residues; d marks the D form. Side chains are listed from the residue outwards. Peptide text beside a SMILES is read from it. * marks the point of attachment. DOTA = O=C(O)CN1CCN(CC(=O)O)CCN(CC(=O)*)CCN(CC(=O)O)CC1; d(γGlu) = O=C(O)[C@@H](CCC(=O)[*:2])N[*:1]; 1Nal = N[C@@H](Cc1cccc2ccccc12)C(=O)O; NMeNle = CCCC[C@H](NC)C(=O)O; PEG4 = NCCOCCOCCOCCOCCC(=O)O

Assays:
in vivo [1] = test: in vivo; parameters: species or system BALB/c nude mice; conditions: female, BALB/c nude, mouse, iv, total radioactivity
Procedure: For the micro-positron emission tomography/computed tomography (microPET/CT) imaging study, BALB/c nude mice bearing AR42J tumors (detailed in Supplementary Methods Section S3: Mouse Models) were intravenously injected with 3.7 MBq of [^68Ga]Ga-DOTA-CCK2R-dimer (≈ 120 pmol) or [^68Ga]Ga-DOTA-CCK-66 (≈ 210 pmol) (dissolved in 200 μL of saline; n = 3/group), and microPET/CT imaging was performed at 30, 60, and 120 min post-injection. The mice were anesthetized via inhalation of an isoflurane mixture approximately 5 min before each PET/CT acquisition began. To confirm tumor-specific radiopharmaceutical uptake, blocking experiments were conducted at the 1-h time point of imaging by coinjecting the mice with the radiopharmaceutical and a 400-fold excess of the lead compound.
(§1) All animal studies were approved by the Ethics Committee of Fudan University
(§2) Shanghai Cancer Center (No. FUSCC-IACUC- S2023- 0003). Five-week-old female
(§3) BALB/c nude mice were purchased from Shanghai SLAC Laboratory Animal
(§4) Company. To establish cell-derived xenograft (CDX) models, 1 × 10⁶ AR42J cells
(§5) (100 μL) were subcutaneously inoculated into the right shoulder of each mouse. […]

[2] = parameters: species or system KM mice; conditions: mouse, in vivo, iv
Procedure: To evaluate the clearance rates of [^68Ga]Ga-DOTA-CCK2R-dimer and [^68Ga]Ga-DOTA-CCK-66 from the blood, a pharmacokinetic study was conducted in male KM mice (4-6 weeks old, 18-20 g, n = 5/group). Each mouse received 3.7 MBq of radiotracer via tail vein injection, corresponding to approximately 120 pmol of [^68Ga]Ga-DOTA-CCK2R-dimer or 210 pmol of [^68Ga]Ga-DOTA-CCK-66. Blood samples were collected from the tail vein into preweighed capillary tubes at 1, 3, 5, 10, 15, 30, 60, 90, 120, and 150 min post-injection. The radioactivity of the blood samples was measured using a γ-counter, and the percent of injected dose per gram of tissue (%ID/g) was calculated. Additionally, we assessed the in vivo stability of [^177Lu]Lu-DOTA-CCK2R-dimer. Mice were intravenously injected with 7.4 MBq (≈ 240 pmol) of [^177Lu]Lu-DOTA-CCK2R-dimer (dissolved in 200 μL of saline; n = 3/group). Urine samples were collected at 1, 4, and 24 hours post-injection, then diluted, filtered through a 0.22 μm membrane, and analyzed by radio-HPLC.
All animal studies were approved by the Ethics Committee of Fudan University […]
Shanghai Cancer Center (No. FUSCC-IACUC- S2023- 0003). […]
Pharmacokinetics in Normal Mice
F or the pharmacokinetics study, […] male KM mice (4 - 6 weeks old, weighing 18 - 20 g) were administered either [68Ga]Ga-D O TA -CCK2R-dimer or [68Ga]Ga-D O TA -CCK- 66 (3.7 MBq per mouse, n = 5/group) via tail vein injection.
Blood samples were collected from the tail vein using pre-weighed capillary tubes at […]
Radioactivity levels were measured using a gamma counter, with decay correction applied based on the injection time. The percentage of injected dose per gram of tissue (%ID/g) was calculated for each time point. […]

in vivo [3] = test: in vivo; parameters: species or system BALB/c nude mice; conditions: mouse; for tissue to tissue ratio at 0.5 h / tissue to tissue ratio at 1 h / tissue to tissue ratio at 2 h: female, BALB/c nude, iv, 3.7 MBq, total radioactivity
Procedure: To complement the imaging studies, biodistribution experiments were performed. AR42J tumor-bearing mice were intravenously injected with 3.7 MBq of [^68Ga]Ga-DOTA-CCK2R-dimer (≈ 120 pmol) or [^68Ga]Ga-DOTA-CCK-66 (≈ 210 pmol) (dissolved in 200 μL of saline; n = 3/group). The mice were sacrificed at 30, 60, and 120 min post-injection, and the tissues of interest were excised, weighed, and analyzed for radioactivity using a γ-counter. For blocking studies, a 400-fold excess of the lead compound was co-administered, and the mice were sacrificed at 1 h post-injection.
as §1, §2, §3, §4, §5

[4] = Tumor-to-Large intestine ratio (T/B)
[5] = Tumor-to-Small intestine ratio (T/B)

In the case of CCCC[C@@H](C(=O)N[C@@H](CC(=O)O)C(=O)N[C@@H](Cc1cccc2ccccc12)C(N)=O)N(C)C(=O)[C@H](Cc1c[nH]c2ccccc12)NC(=O)CCOCCOCCOCCOCCNC(=O)CC[C@@H](NC(=O)CC[C@H](NC(=O)CN1CCN(CC(=O)O)CCN(CC(=O)O)CCN(CC(=O)O)CC1)C(=O)N[C@H](CCC(=O)NCCOCCOCCOCCOCCC(=O)N[C@@H](Cc1c[nH]c2ccccc12)C(=O)N(C)[C@@H](CCCC)C(=O)N[C@@H](CC(=O)O)C(=O)N[C@@H](Cc1cccc2ccccc12)C(N)=O)C(=O)O)C(=O)O [[68Ga]Ga-DOTA-CCK2R-dimer, metal not drawn] ({DOTA}-E([d(γGlu)-PEG4-Trp-NMeNle-Asp-1Nal-NH2])[d(γGlu)][PEG4]W[NMeNle]D[1Nal]-NH2), the tissue uptake at 0.5 h (in vivo [1]; 3.7 MBq) is reported as 22.6 ± 0.32 %ID/g, the tissue uptake at 1 h (in vivo [1]; 3.7 MBq) is reported as 23.9 ± 2.12 %ID/g and the tissue uptake at 2 h (in vivo [1]; 3.7 MBq) is reported as 26.1 ± 6.21 %ID/g. For the same molecule, the tissue uptake at 1 h (in vivo [1]) was 10.9 ± 1.73 %ID/g, the half-life [2] was 46.6 min and the tissue to tissue ratio at 0.5 h (in vivo [3]; Tumor-to-Bladder ratio (T/B)) was 7.42 ± 4.09. It also gave a tissue to tissue ratio at 1 h (in vivo [3]; Tumor-to-Bladder ratio (T/B)) of 8.41 ± 1.6, a tissue to tissue ratio at 2 h (in vivo [3]; Tumor-to-Bladder ratio (T/B)) of 40.8 ± 16.9 and a tissue to tissue ratio at 0.5 h (in vivo [3]; Tumor-to-Blood ratio (T/B)) of 3.01 ± 1.29. It also gave a tissue to tissue ratio at 1 h (in vivo [3]; Tumor-to-Blood ratio (T/B)) of 6.8 ± 4.41, a tissue to tissue ratio at 2 h (in vivo [3]; Tumor-to-Blood ratio (T/B)) of 21.6 ± 9.41 and a tissue to tissue ratio at 0.5 h (in vivo [3]; Tumor-to-Bone ratio (T/B)) of 19.2 ± 4.91. The tissue to tissue ratio at 1 h (in vivo [3]; Tumor-to-Bone ratio (T/B)) was 18.8 ± 5.04, the tissue to tissue ratio at 2 h (in vivo [3]; Tumor-to-Bone ratio (T/B)) was 142 ± 25 and the tissue to tissue ratio at 0.5 h (in vivo [3]; Tumor-to-Brain ratio (T/B)) was 39.7 ± 24.6. It also gave a tissue to tissue ratio at 1 h (in vivo [3]; Tumor-to-Brain ratio (T/B)) of 61.8 ± 7.46, a tissue to tissue ratio at 2 h (in vivo [3]; Tumor-to-Brain ratio (T/B)) of 154 ± 17.5 and a tissue to tissue ratio at 0.5 h (in vivo [3]; Tumor-to-Heart ratio (T/B)) of 5.23 ± 2.91. For the same molecule, the tissue to tissue ratio at 1 h (in vivo [3]; Tumor-to-Heart ratio (T/B)) was 8.18 ± 0.91, the tissue to tissue ratio at 2 h (in vivo [3]; Tumor-to-Heart ratio (T/B)) was 18.5 ± 3.74 and the tissue to tissue ratio at 0.5 h (in vivo [3]; Tumor-to-Kidney ratio (T/B)) was 1.66 ± 1.37. It also gave a tissue to tissue ratio at 1 h (in vivo [3]; Tumor-to-Kidney ratio (T/B)) of 1.15 ± 0.15, a tissue to tissue ratio at 2 h (in vivo [3]; Tumor-to-Kidney ratio (T/B)) of 1.62 ± 0.29 and a tissue to tissue ratio at 0.5 h (in vivo [3]; [4]) of 8.98 ± 3.85. The tissue to tissue ratio at 1 h (in vivo [3]; [4]) was 10.5 ± 1.55, the tissue to tissue ratio at 2 h (in vivo [3]; [4]) was 40.2 ± 29.4 and the tissue to tissue ratio at 0.5 h (in vivo [3]; Tumor-to-Liver ratio (T/B)) was 2.07 ± 1.51. It also gave a tissue to tissue ratio at 1 h (in vivo [3]; Tumor-to-Liver ratio (T/B)) of 3.05 ± 0.56, a tissue to tissue ratio at 2 h (in vivo [3]; Tumor-to-Liver ratio (T/B)) of 11.9 ± 4.6 and a tissue to tissue ratio at 0.5 h (in vivo [3]; Tumor-to-Lung ratio (T/B)) of 3.34 ± 2.07. It also gave a tissue to tissue ratio at 1 h (in vivo [3]; Tumor-to-Lung ratio (T/B)) of 5.56 ± 2.82, a tissue to tissue ratio at 2 h (in vivo [3]; Tumor-to-Lung ratio (T/B)) of 19.7 ± 2.99 and a tissue to tissue ratio at 0.5 h (in vivo [3]; Tumor-to-Muscle ratio (T/M)) of 11.8 ± 5.75. It also gave a tissue to tissue ratio at 1 h (in vivo [3]; Tumor-to-Muscle ratio (T/M)) of 16.5 ± 2.99, a tissue to tissue ratio at 2 h (in vivo [3]; Tumor-to-Muscle ratio (T/M)) of 33 ± 7.91 and a tissue to tissue ratio at 0.5 h (in vivo [3]; [5]) of 7.72 ± 2.49. The tissue to tissue ratio at 1 h (in vivo [3]; [5]) was 8.04 ± 2.02, the tissue to tissue ratio at 2 h (in vivo [3]; [5]) was 26 ± 11.9 and the tissue to tissue ratio at 0.5 h (in vivo [3]; Tumor-to-Spleen ratio (T/B)) was 7.04 ± 3.92. For the same molecule, the tissue to tissue ratio at 1 h (in vivo [3]; Tumor-to-Spleen ratio (T/B)) was 12.6 ± 2, the tissue to tissue ratio at 2 h (in vivo [3]; Tumor-to-Spleen ratio (T/B)) was 39.4 ± 7.6 and the tissue to tissue ratio at 0.5 h (in vivo [3]; Tumor-to-Stomach ratio (T/B)) was 4.5 ± 3.7. For the same molecule, the tissue to tissue ratio at 1 h (in vivo [3]; Tumor-to-Stomach ratio (T/B)) was 5.93 ± 0.89, the tissue to tissue ratio at 2 h (in vivo [3]; Tumor-to-Stomach ratio (T/B)) was 10.5 ± 2.83 and the tissue uptake at 0.5 h (in vivo [3]; Bladder uptake) was 0.97 ± 0.52 %ID/g. It also gave a tissue uptake at 1 h (in vivo [3]; Bladder uptake) of 1.59 ± 0.58 %ID/g, a tissue uptake at 2 h (in vivo [3]; Bladder uptake) of 0.53 ± 0.15 %ID/g and a tissue uptake at 0.5 h (in vivo [3]; Blood uptake) of 2.25 ± 1.2 %ID/g. For the same molecule, the tissue uptake at 2 h (in vivo [3]; Blood uptake) was 1.56 ± 0.97 %ID/g, the tissue uptake at 0.5 h (in vivo [3]; Bone uptake) was 0.78 ± 0.48 %ID/g and the tissue uptake at 2 h (in vivo [3]; Bone uptake) was 0.22 ± 0.18 %ID/g. The tissue uptake at 0.5 h (in vivo [3]; Brain uptake) was 0.17 ± 0.07 %ID/g, the tissue uptake at 2 h (in vivo [3]; Brain uptake) was 0.06 ± 0.04 %ID/g and the tissue uptake at 0.5 h (in vivo [3]; Heart uptake) was 1.26 ± 0.44 %ID/g. For the same molecule, the tissue uptake at 2 h (in vivo [3]; Heart uptake) was 1.14 ± 0.39 %ID/g, the tissue uptake at 0.5 h (in vivo [3]; Kidney uptake) was 5.24 ± 3.64 %ID/g and the tissue uptake at 1 h (in vivo [3]; Kidney uptake) was 11.2 ± 1.84 %ID/g. It also gave a tissue uptake at 2 h (in vivo [3]; Kidney uptake) of 12.7 ± 3.23 %ID/g, a tissue uptake at 0.5 h (in vivo [3]; Large intestine uptake) of 1.38 ± 1.37 %ID/g and a tissue uptake at 2 h (in vivo [3]; Large intestine uptake) of 0.67 ± 0.34 %ID/g. For the same molecule, the tissue uptake at 0.5 h (in vivo [3]; Liver uptake) was 3.45 ± 1.37 %ID/g, the tissue uptake at 1 h (in vivo [3]; Liver uptake) was 4.24 ± 0.47 %ID/g and the tissue uptake at 2 h (in vivo [3]; Liver uptake) was 2.01 ± 1.19 %ID/g. The tissue uptake at 0.5 h (in vivo [3]; Lung uptake) was 2.01 ± 0.71 %ID/g, the tissue uptake at 2 h (in vivo [3]; Lung uptake) was 1.02 ± 0.01 %ID/g and the tissue uptake at 0.5 h (in vivo [3]; Muscle uptake) was 0.57 ± 0.24 %ID/g. The tissue uptake at 2 h (in vivo [3]; Muscle uptake) was 0.62 ± 0.19 %ID/g, the tissue uptake at 0.5 h (in vivo [3]; Small intestine uptake) was 1.48 ± 0.73 %ID/g and the tissue uptake at 2 h (in vivo [3]; Small intestine uptake) was 0.86 ± 0.32 %ID/g. It also gave a tissue uptake at 0.5 h (in vivo [3]; Spleen uptake) of 0.96 ± 0.4 %ID/g, a tissue uptake at 2 h (in vivo [3]; Spleen uptake) of 0.52 ± 0.05 %ID/g and a tissue uptake at 0.5 h (in vivo [3]; Stomach uptake) of 1.11 ± 0.59 %ID/g. It also gave a tissue uptake at 2 h (in vivo [3]; Stomach uptake) of 1.97 ± 0.39 %ID/g, a tissue uptake at 0.5 h (in vivo [3]; Tumor uptake) of 5.81 ± 1.83 %ID/g and a tissue uptake at 2 h (in vivo [3]; Tumor uptake) of 20.2 ± 3.31 %ID/g.
